Numbered stars: 1 amine (or outer) side, 2 acyl side, 3 side chain; on linkers, the order of the positions; unused ones are H or OH. Bridge positions count the residues as written; N and C are the ends. Square brackets hold non-standard residues; d marks the D form. Peptide text beside a SMILES is read from it. I, II: the chains in the order shown. Actinocin(9to1) = Cc1c2oc3c(C)ccc(C(=O)[*:1])c3nc-2c(C(=O)[*:2])c(N)c1=O; NMeV = CN[C@H](C(=O)O)C(C)C; Sar = CNCC(=O)O
Assays:
[1] = tested on: panel of 48 to 60 cell lines; test: 5×4 combination screen with SR16388; synergism hit rate by algorithm (Z score); format: cell-based; conditions: in combination with SR16388, all 20 (5×4) dose combinations
Description: (§1) SR16388 was synthesized in house.
5) A “combination score” was assigned to each specific combination (Ca1b1x): C=1 if Za1b1x>3*SD and C=0 if Za1b1x≦3*SD score);
6) Hit rate of each combination was calculated by comparing the sum of the combination scores of all 20 (5×4) dose combinations with all cell lines to the total number of data points of that specific combination;
7) Hit rate were ranked from high to low to identify potential synergistic combinations.

[2] = tested on: panel of 48 to 60 cell lines; test: 5×4 combination screen with SR16388, CellTiter-Glo viability; synergy by pattern recognition; conditions: in combination with SR16388, 5x4-T1; for no effect (number of cell lines) / synergy (number of cell lines): pattern recognition, of 60 cell lines incl. no data; for % synergy: share of cell lines with data
Description: Cells were treated with compounds alone or in combination for three days and CellTiter-Glo® Luminescent Cell Viability Assay (Promega Corp.) was used as the endpoint to measure cell viability.
Cells were cultured in DMEM with 10% fetal bovine serum and used between passage 2 and passage 20. Cells were harvested on Day-1 (FIG. 1A) and re-supspended to the corresponding seeding density and seeded with Wellmate (ThermoFisher) to 384 plates (BD or GBO).
40 mM Compound stocks in 100% DMSO were made. Master plates were made with Janus (PerkinElmer), then further diluted and added to the cell plates with Matrix Platemate (Thermo) on Day 0.
CellTiter-Glo® Luminescent Cell Viability Assay (Promega Corp.) was used to measure ATP as an indicator of viable cells on Day 3 using Envision (PerkinElmer) and back up reader Analyst HT (MDS) and Gen5 (BioTek).
Single point, 5×4 checkque board platemap was used in the initial screening.
Relative Luminescent Units (RLU) were plotted against corresponding drug concentrations and fitted with standard four parameter sigmoidal curve with custom coded R program or Calcusyn (Biosoft, Cambridge, UK).

[3] = tested on: various cancer cell lines; test: 11×7 synergism hit rate over all cell lines (by algorism); format: cell-based; conditions: when tested with SR16388
From the text: as §1
Within the same type of cancer cells, some cell lines have more synergistic hits than others. Melanoma and breast cancer cell lines had the highest hit rate.

[4] = Prior in vivo xenograft study and other safety data
cancer cell lines = test: Combination cell viability assay, general observations on ratios and confirmed synergy; format: cell-based; conditions: in combination with SR16388
Description: Cells were treated with compounds alone or in combination for three days and CellTiter-Glo® Luminescent Cell Viability Assay (Promega Corp.) was used as the endpoint to measure cell viability. […] Cells were harvested on Day-1 (FIG. 1A) and re-supspended to the corresponding seeding density and seeded with Wellmate (ThermoFisher) to 384 plates (BD or GBO). […] Master plates were made with Janus (PerkinElmer), then further diluted and added to the cell plates with Matrix Platemate (Thermo) on Day 0. CellTiter-Glo® Luminescent Cell Viability Assay (Promega Corp.) was used to measure ATP as an indicator of viable cells on Day 3 using Envision (PerkinElmer) and back up reader Analyst HT (MDS) and Gen5 (BioTek). Relative Luminescent Units (RLU) were plotted against corresponding drug concentrations and fitted with standard four parameter sigmoidal curve with custom coded R program or Calcusyn (Biosoft, Cambridge, UK).

Nc1ccn([C@@H]2O[C@H](CO)[C@@H](O)C2(F)F)c(=O)n1 [Gemcitabine]
% hit/combo [1]: 0.83% | no effect (number of cell lines) [2]: 58 | synergy (number of cell lines) [2]: 0 | % synergy [2]: 0%

Cc1cn(-c2cc(NC(=O)c3ccc(C)c(Nc4nccc(-c5cccnc5)n4)c3)cc(C(F)(F)F)c2)cn1 [Nilotinib]
% hit/combo [1]: 0.33% | no effect (number of cell lines) [2]: 42 | synergy (number of cell lines) [2]: 0 | % synergy [2]: 0%

S=P(N1CC1)(N1CC1)N1CC1 [Thiotepa]
% hit/combo [1]: 0.83% | no effect (number of cell lines) [2]: 42

CC1=C(/C=C/C(C)=C/C=C/C(C)=C/C(=O)O)C(C)(C)CCC1 [Tretinoin]
% hit/combo [1]: 0.58% | no effect (number of cell lines) [2]: 42 | synergy (number of cell lines) [2]: 0 | % synergy [2]: 0%

Cc1c2oc3c(C)ccc(C(=O)N[C@@H]4C(=O)N[C@H](C(C)C)C(=O)N5CCC[C@H]5C(=O)N(C)CC(=O)N(C)[C@@H](C(C)C)C(=O)O[C@@H]4C)c3nc-2c(C(=O)N[C@@H]2C(=O)N[C@H](C(C)C)C(=O)N3CCC[C@H]3C(=O)N(C)CC(=O)N(C)[C@@H](C(C)C)C(=O)O[C@@H]2C)c(N)c1=O [Actinomycin] (I: T[dV]P[Sar][NMeV] / II: T[dV]P[Sar][NMeV]; ester I:1-I:C, II:1-II:C; linker I:N-II:N via Actinocin(9to1))
hit rate [3]: 1.89% | % hit/combo [1]: 1.67% | no effect (number of cell lines) [2]: 39

Cc1ccc(NC(=O)c2ccc(CN3CCN(C)CC3)cc2)cc1Nc1nccc(-c2cccnc2)n1 [Imatinib]
% hit/combo [1]: 0.92% | no effect (number of cell lines) [2]: 41 | synergy (number of cell lines) [2]: 1 | % synergy [2]: 2%

Cc1nc(Nc2ncc(C(=O)Nc3c(C)cccc3Cl)s2)cc(N2CCN(CCO)CC2)n1 [Dasatinib]
% hit/combo [1]: 1.08% | no effect (number of cell lines) [2]: 50 | synergy (number of cell lines) [2]: 8 | % synergy [2]: 14%

O=c1[nH]c(=O)n([C@H]2C[C@H](O)[C@@H](CO)O2)cc1F [Floxuridine]
% hit/combo [1]: 0.67% | no effect (number of cell lines) [2]: 42 | synergy (number of cell lines) [2]: 0 | % synergy [2]: 0%

Cn1nnc2c(C(N)=O)ncn2c1=O [Temozolomide]
% hit/combo [1]: 0.75% | no effect (number of cell lines) [2]: 42

Cc1ccc(-c2cc(C(F)(F)F)nn2-c2ccc(S(N)(=O)=O)cc2)cc1 [Celecoxib]
% hit/combo [1]: 0.67% | no effect (number of cell lines) [2]: 42 | synergy (number of cell lines) [2]: 0 | % synergy [2]: 0%

O=C(CCCCCCC(=O)Nc1ccccc1)NO [Vorinostat]
% hit/combo [1]: 0.83% | no effect (number of cell lines) [2]: 58 | synergy (number of cell lines) [2]: 0 | % synergy [2]: 0%

C[C@@H]1Cc2cc(O)ccc2[C@H]2CC[C@]3(C)/C(=C/COCCN(C)C)CC[C@H]3[C@H]12 [SR16388]
overlapping toxicities with microtubulin inhibitors [4]: does not have ovelapping toxicities | tolerability [4]: well tolerated

N.N.O=C([O-])C1(C(=O)[O-])CCC1.[Pt+2] [Carboplatin]
% hit/combo [1]: 0.83% | no effect (number of cell lines) [2]: 41 | synergy (number of cell lines) [2]: 1 | % synergy [2]: 2%

COc1nc(N)nc2c1ncn2[C@@H]1O[C@H](CO)[C@@H](O)[C@@H]1O [Nelarabine]
% hit/combo [1]: 0.33% | no effect (number of cell lines) [2]: 58 | synergy (number of cell lines) [2]: 0 | % synergy [2]: 0%

CC/C(=C(\c1ccccc1)c1ccc(OCCN(C)C)cc1)c1ccccc1 [Tamoxifen]
% hit/combo [1]: 0.83% | no effect (number of cell lines) [2]: 39 | synergy (number of cell lines) [2]: 3 | % synergy [2]: 7%

Nc1nc(F)nc2c1ncn2[C@@H]1O[C@H](CO)[C@@H](O)[C@@H]1O [FluroaraA]
% hit/combo [1]: 0.67% | no effect (number of cell lines) [2]: 42 | synergy (number of cell lines) [2]: 0 | % synergy [2]: 0%

N#Cc1ccc(C(c2ccc(C#N)cc2)n2cncn2)cc1 [Letrozole]
% hit/combo [1]: 0.42% | no effect (number of cell lines) [2]: 42 | synergy (number of cell lines) [2]: 0 | % synergy [2]: 0%

C/C=C1\NC(=O)[C@H]2CSSCC/C=C/[C@H](CC(=O)N[C@H](C(C)C)C(=O)N2)OC(=O)[C@H](C(C)C)NC1=O [Romidepsin]
% hit/combo [1]: 0.75% | no effect (number of cell lines) [2]: 52 | synergy (number of cell lines) [2]: 6 | % synergy [2]: 10%

Nc1ccn([C@@H]2O[C@H](CO)[C@@H](O)[C@@H]2O)c(=O)n1 [Cytarabine]
% hit/combo [1]: 0.33% | no effect (number of cell lines) [2]: 42 | synergy (number of cell lines) [2]: 0 | % synergy [2]: 0%

CCc1c2c(nc3ccc(O)cc13)-c1cc3c(c(=O)n1C2)COC(=O)[C@]3(O)CC [SN38]
% hit/combo [1]: 0.58% | no effect (number of cell lines) [2]: 45 | synergy (number of cell lines) [2]: 13 | % synergy [2]: 22%

CO[C@H]1C[C@@H]2CC[C@@H](C)[C@@](O)(O2)C(=O)C(=O)N2CCCC[C@H]2C(=O)O[C@H]([C@H](C)C[C@@H]2CC[C@@H](OCCO)[C@H](OC)C2)CC(=O)[C@H](C)/C=C(\C)[C@@H](O)[C@@H](OC)C(=O)[C@H](C)C[C@H](C)/C=C/C=C/C=C/1C [Everolimus]
% hit/combo [1]: 0.42% | no effect (number of cell lines) [2]: 58 | synergy (number of cell lines) [2]: 0 | % synergy [2]: 0%

CO[C@H]1C[C@@H]2CC[C@@H](C)[C@@](O)(O2)C(=O)C(=O)N2CCCC[C@H]2C(=O)O[C@H]([C@H](C)C[C@@H]2CC[C@@H](O)[C@H](OC)C2)CC(=O)[C@H](C)/C=C(\C)[C@@H](O)[C@@H](OC)C(=O)[C@H](C)C[C@H](C)/C=C/C=C/C=C/1C [Rapamycin]
% hit/combo [1]: 0.83% | no effect (number of cell lines) [2]: 54

CS(=O)(=O)CCNCc1ccc(-c2ccc3ncnc(Nc4ccc(OCc5cccc(F)c5)c(Cl)c4)c3c2)o1 [Lapatinib]
% hit/combo [1]: 0.67% | no effect (number of cell lines) [2]: 55 | synergy (number of cell lines) [2]: 3 | % synergy [2]: 5%

CCN(CC)CCNC(=O)c1c(C)[nH]c(/C=C2\C(=O)Nc3ccc(F)cc32)c1C [Sunitinib]
% hit/combo [1]: 1.25% | no effect (number of cell lines) [2]: 56

Nc1nc(Cl)nc2c1ncn2[C@H]1C[C@H](O)[C@@H](CO)O1 [Cladribine]
% hit/combo [1]: 0.67% | no effect (number of cell lines) [2]: 42 | synergy (number of cell lines) [2]: 0 | % synergy [2]: 0%

Nc1nc(Cl)nc2c1ncn2[C@@H]1O[C@H](CO)[C@@H](O)[C@@H]1F [Clofarabine]
% hit/combo [1]: 0.50% | no effect (number of cell lines) [2]: 58

CCCCCOC(=O)Nc1nc(=O)n([C@@H]2O[C@H](C)[C@@H](O)[C@H]2O)cc1F [Capecitabine]
% hit/combo [1]: 1.08% | no effect (number of cell lines) [2]: 58 | synergy (number of cell lines) [2]: 0 | % synergy [2]: 0%

CCC1=C[C@@H]2CN(C1)Cc1c([nH]c3ccccc13)[C@@](C(=O)OC)(c1cc3c(cc1OC)N(C)[C@H]1[C@@](O)(C(=O)OC)[C@H](OC(C)=O)[C@]4(CC)C=CCN5CC[C@]31[C@@H]54)C2 [Vinorelbine]
interaction with SR16388 (confirmed) (cancer cell lines): synergistic anti-proliferation effect

Source: US20130123222A1, “Synergistic Anti-Cancer Activity of SR16388 with Anti-Mitotic Drugs” (SRI INTERNATIONAL, INC., priority 2011, published 2013)
